Data taken from patent US20220280594A1, “APPLICATION OF POLYPEPTIDE OR DERIVATIVE THEREOF” (CHENGDU HUITAI BIOMEDICINE CO., LTD., priority 2019, published 2022).
Ends that are not written are not given here. PEG = not defined here

Experiments:
[1] = test system: human lung cancer cells (A549) subcutaneous xenograft; test: lung cancer subcutaneous xenograft animal model, intravenous injection; assay type: in vivo, mice (BALB/c-nu/nu); conditions: intravenous 60 mg/kg once every other day, 20 days; for Weight of tumor (g) (mean ± SD): control 2.53 ± 0.17; for Volume of tumor (mm^3) (mean ± SD): control 3373.26 ± 581.44
Outline: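 Female BALB/c-nu/nu mice (4-6 weeks) inoculated subcutaneously with ~2×10^6 A549 cells; grouped once tumours exceeded 100 mm^3. Peptides given intravenously at 60 mg/kg for 20 days versus model control. Tumour weight and volume measured at dissection; body weight recorded every other day.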

[2] = test system: human pancreatic cancer cells (PANC-1); test: transwell invasion assay, PANC-1 cells; assay type: cell-based; conditions: PANC-1 transwell invasion, 10 μM, 24 hours; control group 727 ± 68
Outline: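 Serum-free PANC-1 cells were seeded in matrigel-coated upper chambers with complete medium below. After 4-5 hours at 37° C., peptide was added at 10 μM final. Following 24 hours, invaded cells on the lower membrane surface were fixed, crystal violet-stained, imaged and counted against untreated controls.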

[3] = test system: human lung squamous carcinoma cells (NCI-H226); test: scratch assay, migration of NCI-H226 cells; assay type: cell-based; conditions: NCI-H226, 10 μM, 48 hours; control group 65.31 ± 3.19
Outline: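 A straight scratch was made in confluent NCI-H226 monolayers (1-2×10^5 cells/well). Cells were then kept 48 h in 2% FBS medium with 10 μM polypeptide or PBS control, triplicate wells. Migration rate (%) = (original − current scratch width)/original width ×100, from imaged scratch widths.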

[4] = test system: human pancreatic cancer cells (PANC-1); test: transwell migration assay, PANC-1 cells; assay type: cell-based; conditions: PANC-1 transwell migration, 10 μM, 24 hours; control group 360 ± 60
Outline: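 Serum-free PANC-1 cells placed in the upper transwell chamber with complete medium below; after 4-5 h, peptide added to the upper chamber at a final 10 μM. Migration ran 24 h at 37 °C; cells on the membrane underside were methanol-fixed, crystal violet-stained and counted by microscopy.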

[5] = test system: human thyroid cancer cells (FRO); test: scratch assay, migration of FRO cells; assay type: cell-based; conditions: 10 μM, 48 hours, control group 60.34 ± 8.32
Outline: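 FRO monolayers were scratched, washed, and cultured 48 h in 2% FBS medium with polypeptide derivatives at 10 μM or PBS control, three wells per group. Migration rate (%) = (original − current scratch width)/original width × 100, measured from images.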

[6] = test system: human lung cancer cells (95D); test: scratch assay, migration of 95D cells; assay type: cell-based; conditions: 10 μM, 48 hours, control group 55.3 ± 3.19
Outline: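 Confluent 95D monolayers were scratched, washed with PBS and cultured 48 h in 2% FBS medium containing peptide (10 μM) or PBS control, in triplicate wells. Scratch width was measured on images; migration rate (%) = (original width − current width)/original width × 100.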

## N47: SEQ ID NO: 1 with N18R, deletion of positions 1-2, one amino acid added and PEG at the carboxyl terminal (VRFLAKENVTQDAEDRC-{PEG}; reading uncertain)
[1]
  Weight of tumor (g) (mean ± SD): 0.75 ± 0.39 g
  Volume of tumor (mm^3) (mean ± SD): 1748.82 ± 508.08 mm^3
[2]
  Number of cells (mean ± SD, P), invaded cells: 133 ± 29,****
[3]
  Migration rate (%) (mean ± SD, P): 53.86 ± 3.61,* %
[4]
  Number of cells (mean ± SD, P), migrated cells: 135 ± 10,***
[5]
  Migration rate (%) (mean ± SD, P): 16.47 ± 3.83,** %
[6]
  Migration rate (%) (mean ± SD, P): 23.86 ± 3.61,*** %

## N48: SEQ ID NO: 1 with A7R, deletion of position 11 and position 18, PEG modification at the carboxyl terminal (YRVRFLRKENTQDAED-{PEG}; reading uncertain)
[1]
  Weight of tumor (g) (mean ± SD): 0.71 ± 0.37 g
  Volume of tumor (mm^3) (mean ± SD): 1558.12 ± 436.42 mm^3
[2]
  Number of cells (mean ± SD, P), invaded cells: 149 ± 12,****
[3]
  Migration rate (%) (mean ± SD, P): 25.07 ± 4.31,*** %
[4]
  Number of cells (mean ± SD, P), migrated cells: 152 ± 18,***
[5]
  Migration rate (%) (mean ± SD, P): 13.78 ± 2.61,*** %
[6]
  Migration rate (%) (mean ± SD, P): 25.07 ± 6.31,** %

## N49: SEQ ID NO: 1 with A7R, deletion of positions 1-2 and position 18, PEG modification at the carboxyl terminal (VRFLRKENVTQDAED-{PEG}; reading uncertain)
[1]
  Weight of tumor (g) (mean ± SD): 0.73 ± 0.26 g
  Volume of tumor (mm^3) (mean ± SD): 1513.42 ± 287.49 mm^3
[2]
  Number of cells (mean ± SD, P), invaded cells: 141 ± 7,****
[3]
  Migration rate (%) (mean ± SD, P): 38.90 ± 5.49,** %
[4]
  Number of cells (mean ± SD, P), migrated cells: 137 ± 29,***
[5]
  Migration rate (%) (mean ± SD, P): 15.77 ± 2.99,** %
[6]
  Migration rate (%) (mean ± SD, P): 29.37 ± 3.62,** %

## N50: SEQ ID NO: 1 with N18R, addition of 2 amino acid at the carboxyl terminal, PEG modification at the amino terminal ({PEG}-YRVRFLAKENVTQDAEDRCT; reading uncertain)
[1]
  Weight of tumor (g) (mean ± SD): 0.85 ± 0.27 g
  Volume of tumor (mm^3) (mean ± SD): 1463.11 ± 472.43 mm^3
[2]
  Number of cells (mean ± SD, P), invaded cells: 310 ± 30,***
[3]
  Migration rate (%) (mean ± SD, P): 33.20 ± 3.59,** %
[4]
  Number of cells (mean ± SD, P), migrated cells: 230 ± 11,**
[5]
  Migration rate (%) (mean ± SD, P): 11.80 ± 4.15,*** %
[6]
  Migration rate (%) (mean ± SD, P): 31.05 ± 4.32,** %

## N51: SEQ ID NO: 1 with A15R, one amino acid added at each terminal, PEG modification at the amino terminal ({PEG}-FYRVRFLAKENVTQDREDNC; reading uncertain)
[1]
  Weight of tumor (g) (mean ± SD): 0.75 ± 0.37 g
  Volume of tumor (mm^3) (mean ± SD): 1412.56 ± 599.92 mm^3
[2]
  Number of cells (mean ± SD, P), invaded cells: 282 ± 28,****
[3]
  Migration rate (%) (mean ± SD, P): 33.16 ± 4.43,** %
[4]
  Number of cells (mean ± SD, P), migrated cells: 214 ± 17,***
[5]
  Migration rate (%) (mean ± SD, P): 17.93 ± 5.55,** %
[6]
  Migration rate (%) (mean ± SD, P): 30.04 ± 5.08,** %

## N52: SEQ ID NO: 1 with N18R, addition of two amino acids and PEG modification at the carboxyl terminal (YRVRFLAKENVTQDAEDRCT-{PEG}; reading uncertain)
[1]
  Weight of tumor (g) (mean ± SD): 0.7 ± 0.2 g
  Volume of tumor (mm^3) (mean ± SD): 1425.2 ± 555.76 mm^3
[2]
  Number of cells (mean ± SD, P), invaded cells: 237 ± 27,****
[3]
  Migration rate (%) (mean ± SD, P): 27.19 ± 4.67,*** %
[4]
  Number of cells (mean ± SD, P), migrated cells: 153 ± 16,***
[5]
  Migration rate (%) (mean ± SD, P): 10.86 ± 3.90,*** %
[6]
  Migration rate (%) (mean ± SD, P): 27.19 ± 5.67,** %

## N53: SEQ ID NO: 1 with A15R, one amino acid added at each terminal, PEG modification at the carboxyl terminal (FYRVRFLAKENVTQDREDNC-{PEG}; reading uncertain)
[1]
  Weight of tumor (g) (mean ± SD): 0.75 ± 0.27 g
  Volume of tumor (mm^3) (mean ± SD): 1549.08 ± 539.99 mm^3
[2]
  Number of cells (mean ± SD, P), invaded cells: 228 ± 25,****
[3]
  Migration rate (%) (mean ± SD, P): 41.05 ± 4.60,** %
[4]
  Number of cells (mean ± SD, P), migrated cells: 131 ± 8,***
[5]
  Migration rate (%) (mean ± SD, P): 20.32 ± 4.58,** %
[6]
  Migration rate (%) (mean ± SD, P): 21.05 ± 6.60,** %

## N54: SEQ ID NO: 1 with A7R, addition of two amino acids and PEG modification at the carboxyl terminal (YRVRFLRKENVTQDAEDNTC-{PEG}; reading uncertain)
[1]
  Weight of tumor (g) (mean ± SD): 0.89 ± 0.37 g
  Volume of tumor (mm^3) (mean ± SD): 1381.65 ± 396.21 mm^3
[2]
  Number of cells (mean ± SD, P), invaded cells: 231 ± 26,****
[3]
  Migration rate (%) (mean ± SD, P): 24.66 ± 5.13,*** %
[4]
  Number of cells (mean ± SD, P), migrated cells: 128 ± 19,***
[5]
  Migration rate (%) (mean ± SD, P): 8.26 ± 3.47%
[6]
  Migration rate (%) (mean ± SD, P): 24.66 ± 6.13,** %
